Data as given in patent US8507290B2, “Water-soluble silsesquioxanes as organic quantum dots for sensing and imaging” (National University of Singapore, priority 2009, dated 2013).

What was measured:
[1] = tested on: breast cancer cells (MCF-7); experiment: One-photon and two-photon fluorescent cellular nucleus imaging (CLSM); type: cell-based; conditions: 2 h, signals above 560 nm
Procedure: One-photon and two-photon fluorescence images of the MCF-7 cells were then obtained.
OPEF imaging was obtained by excitation of the cells at 488 nm and collection of fluorescence above 560 nm under the fixed parameters. […] As nucleolus is the site of ribosomal RNA synthesis, it has the highest concentration of RNA in nucleus.
For TPEF imaging, the dye concentrations are fixed at 1 μM, and the cellular images were acquired by excitation of the cells at near-infrared wavelength (760 nm) and collection of signals above 560 nm.

dsDNA and RNA = conditions: cited from earlier work

Q: With `CCCN(CCCN(C)C)c1cc(/C=C2/Sc3ccccc3N2C)c2ccccc2[n+]1-c1ccccc1` [SG, SYBR Green I] as the compound, how does the “two-photon fluorescence (TPEF) imaging of nucleus” value ([1]; MCF-7, 1 μM dye, excitation at 760 nm) read?
A: Its value is “does not provide a clear cellular image”.

Q: What about the “one-photon fluorescence (OPEF) imaging: uptake and localisation” value ([1]; MCF-7, dye 1 μM (also 0.1 and 0.02 μM), excitation at 488 nm) of the same compound?
A: The value was “homogenously-stained nucleus pattern”.

Q: What about the “light-up response toward dsDNA and RNA (commercial dyes)” value (dsDNA and RNA) of the same compound?
A: The value was “only shows strong light-up response toward dsDNA”.

Q: Which “light-up response toward dsDNA and RNA (commercial dyes)” value (dsDNA and RNA) does the source give for SYTO 9 here?
A: The value was “nearly equal light-up responses toward dsDNA and RNA”.
